From patent US9878007B2, “Syndecan peptides and polypeptides as inhibitors of vascular endothelial growth factor receptor-2 (VEGFR2) and very late antigen-4 (VLA-4)” (Wisconsin Alumni Research Foundation, priority 2015, dated 2018)

What was measured:
[1] = system: P3x63Ag8 mouse myeloma cells; assay: Invasion of P3x63Ag8 myeloma cells through FN-coated filters; assay type: cell-based; details: 16 hr
Protocol: (§1) FIG. 7A-B. S1ED^214-236, specific for VEGFR2 coupling to VLA-4, blocks myeloma cell invasion but not adhesion. (FIG. 7A) P3x63Ag8 mouse myeloma cells are plating on the VLA-4 ligand FN in the presence or absence of 30 uM S1ED^210-233 (SEQ ID No: 4) or S1ED^214-236 (SEQ ID No: 7) for 2.5 hr. (FIG. 7B) P3x63Ag8 myeloma cells are plated on FN-coated filters in the presence of HPSE inhibitor OGT2115, VLA-4 blocking antibody P1H4, VEGFR2 inhibitor Vandetanib or S1ED^210-233 or S1ED^214-236 and allowed to migrate through the filter for 16 hr. Small black dots are the pores in the filter.
The bottom chambers of Transwell filter chambers (8 μm pores; Corning) were coated with 40 μg/ml of FN. Cells (5×10^5 in 0.2 ml plating medium) were placed in the upper chamber and incubated for 16 hr at 37° C. in the CO2 incubator. After incubation, cells in the upper chamber were removed and cells on the bottom side of the filter were fixed in 4% paraformaldehyde (PFA) and stained with 0.1% Crystal Violet before imaging. Cells from at least five random fields were counted.

[2] = system: P3x63Ag8 mouse myeloma cells; assay: Adhesion of P3x63Ag8 myeloma cells to FN; assay type: cell-based; details: 30 uM peptide, 2.5 hr
Protocol: as §1
Nitrocellulose-coated slides were coated for 2 hr at 37° C. with 40 μg/ml FN (kindly provided by Dr. Donna Peters, University of Wisconsin-Madison) or 5 μg/ml recombinant VCAM-1/Fc chimera (R&D Systems) in calcium and magnesium-free PBS (CMF-PBS; 135 mM NaCl, 2.7 mM KCl, 10.2 mM Na2HPO4-7H20 and 1.75 mM KH2PO4, pH7.4). Slides were blocked for 1 hr at 37° C. with RPMI 1640 containing 1% heat-denatured BSA (plating medium). Cells in plating medium were allowed to attach and spread for 2.5 hr at 37° C. Slides were fixed in 4% EM grade paraformaldehyde (Electron Microscopy Sciences) in CMF-PBS and labeled for 30 min in 0.13 μM rhodamine phalloidin (Invitrogen) in CMF-PBS. Coverslips were mounted in non-fluorescing mounting medium (Immumount; Thermo Shandon) and allowed to dry. […]

| Compound | invasion / migration of P3X cells through FN-coated filters [1] | adhesion of P3X cells to FN [2] |
| --- | --- | --- |
| O=C(O)Cc1ccc2oc(-c3ccc(NC(=O)/C=C/c4ccc(Br)cc4)c(F)c3)nc2c1 [OGT2115, reference compound] | Cell migration is only observed in the untreated controls |  |
| S1ED^214-236: syndecan-1 ectodomain peptide, residues 214-236 (SEQ ID NO: 7) (ETSGENTAVVAVEPDRRNQSPVD) | blocked by either peptide | without effect |
